In patent US4804749A, “20-O-Acyl-19,20-enolmacrolide antibiotic derivatives” (Toyo Jozo Co., Ltd., priority 1986, dated 1989):
Converted amounts (≈) assume the structure as drawn.

How the values were obtained:
S. aureus, 209P = assay: MIC against S. aureus, 209P; assay type: cell-based; details: Staphylococcus aureus
Source text: (§1) Antibacterial activities of certain compounds (I) of this invention and corresponding 19-formylmacrolide antibiotics as well as their levels in blood and therapeutic effects for infectious diseases upon their oral administration are compared in Table 2.
MIC (μg/ml): S. aureus, 209P

[1] = Antibiotics levels in blood upon oral administration at 100 mg/kg to mice (by the paper disk method); assay type: in vivo; details: mouse, ND: Below detectable limit; for Cmax: read-out: Antibiotics levels in blood upon oral administration: Peak value
Protocol: as §1
Antibiotics levels in blood
upon oral administration at
100 mg/kg to mice (by the paper
disk method) (μg · h/ml)

S. pyogenes, S-23 [2] = assay: MIC against infective microorganism S. pyogenes, S-23; assay type: cell-based; details: Streptococcus pyogenes, S23
Source text: as §1

S. pyogenes, S-23 [3] = assay: Treatment results of infectious diseases of mice by oral administration; assay type: in vivo; details: Streptococcus pyogenes, S23; mice infected with S. pyogenes S-23, oral administration
Source text: as §1
infectious diseases of mice

CCC(=O)OC1CC(=O)OC(CC)C(COC2OC(C)CC(OC)C2OC)C=C(C)C=CC(=O)C(C)CC(CC=O)C(OC2OC(C)C(O)C(N(C)C)C2O)C1C (stereo not drawn) [Example 2a, 3O--Propionyl-4"-deoxydesmycosin, reference compound]
MIC (S. aureus, 209P): 0.2 mg/L (≈ 0.246 µM) | AUC [1]: 1.57 µg·h/mL | Cmax [1]: 0.42 µg/mL

CCC(=O)OC=CC1CC(C)C(=O)C=CC(C)=CC(COC2OC(C)CC(OC)C2OC)C(CC)OC(=O)CC(OC(=O)CC)C(C)C1OC1OC(C)C(O)C(N(C)C)C1O (stereo not drawn) [Example 2b, 3,20-Di-O-propionyl-19, 20-enol-4"-deoxydesmycosin]
MIC (S. aureus, 209P): 0.39 mg/L (≈ 0.449 µM) | AUC [1]: 2.8 µg·h/mL | Cmax [1]: 2.63 µg/mL

CCC(=O)OC1CC(=O)OC(CC)C(COC2OC(C)C(O)C(OC)C2OC)C=C(C)C=CC(=O)C(C)CC(CC=O)C(OC2OC(C)CC(N(C)C)C2O)C1C (stereo not drawn) [Example 3a, 3O--Propionyl-4'deoxydesmycosin, reference compound]
MIC (S. aureus, 209P): 0.2 mg/L (≈ 0.246 µM) | MIC (S. pyogenes, S-23 [2]): 0.05 mg/L (≈ 0.0616 µM) | AUC [1]: 1.79 µg·h/mL | Cmax [1]: 0.43 µg/mL | ED50 (S. pyogenes, S-23 [3]): > 200 mg/kg

CCC(=O)OC=CC1CC(C)C(=O)C=CC(C)=CC(COC2OC(C)C(O)C(OC)C2OC)C(CC)OC(=O)CC(OC(=O)CC)C(C)C1OC1OC(C)CC(N(C)C)C1O (stereo not drawn) [Example 3b, 3,20-Di-O-propionyl-19,20-enol-4'-deoxydesmycosin]
MIC (S. aureus, 209P): 0.39 mg/L (≈ 0.449 µM) | MIC (S. pyogenes, S-23 [2]): 0.2 mg/L (≈ 0.23 µM) | AUC [1]: 4.9 µg·h/mL | Cmax [1]: 2.71 µg/mL | ED50 (S. pyogenes, S-23 [3]): 59 mg/kg

CCC(=O)OC1CC(=O)OC(CC)C(COC(=O)N(C)C)C=C(C)C=CC(=O)C(C)CC(CC=O)C(OC2OC(C)C(O)C(N(C)C)C2O)C1C (stereo not drawn) [Ia, 3O--Propionyl-23-O--dimethylcarbamoyl-OMT, reference compound]
MIC (S. aureus, 209P): 0.2 mg/L (≈ 0.276 µM) | MIC (S. pyogenes, S-23 [2]): 0.1 mg/L (≈ 0.138 µM) | ED50 (S. pyogenes, S-23 [3]): > 400 mg/kg

CCC(=O)OC=CC1CC(C)C(=O)C=CC(C)=CC(COC(=O)N(C)C)C(CC)OC(=O)CC(OC(=O)CC)C(C)C1OC1OC(C)C(O)C(N(C)C)C1O (stereo not drawn) [Ib, 3,20-Di-O-propionyl-19,20-enol-23-O-dimethylcarbamoyl-OMT]
MIC (S. aureus, 209P): 0.78 mg/L (≈ 0.999 µM) | MIC (S. pyogenes, S-23 [2]): 0.78 mg/L (≈ 0.999 µM) | AUC [1]: 6 µg·h/mL | Cmax [1]: 3 µg/mL | ED50 (S. pyogenes, S-23 [3]): 100 to 200 mg/kg
